Like-named read-outs stand apart in the source and are kept apart here.
What was measured:
[1] = tested on: laboratory strain of HIV-1; experiment: Antiviral Activity Against HIV (AV), p24 in infected activated primary T cells; format: cell-based; details: for antiviral and antiproliferative activity and cytotoxicity profile: summary in words; for IC50: read-out: AV50, Table 5
Protocol: Antiviral Activity Against HIV (AV)
Activated primary T cells are infected with a laboratory strain of HIV-1, then cultured and exposed to different concentrations of the test compounds. HIV replication is analysed by measuring the viral protein p24 and expressed as percentage of untreated control. Inhibition of viral replication (AV) is then calculated (AV=100 minus the % p24 compared to control, AV of control=0%). Inhibitory concentration 50% for antiviral activity (AV50) is calculated.

[2] = target: human CDK9/CyclinT kinase complex (Homo sapiens (Human), UniProt P50750); experiment: In Vitro CDK9/CyclinT Assay (IMAP fluorescent polarization); format: biochemical
human CDK9/CyclinT kinase complex, sequence (P50750 whole entry): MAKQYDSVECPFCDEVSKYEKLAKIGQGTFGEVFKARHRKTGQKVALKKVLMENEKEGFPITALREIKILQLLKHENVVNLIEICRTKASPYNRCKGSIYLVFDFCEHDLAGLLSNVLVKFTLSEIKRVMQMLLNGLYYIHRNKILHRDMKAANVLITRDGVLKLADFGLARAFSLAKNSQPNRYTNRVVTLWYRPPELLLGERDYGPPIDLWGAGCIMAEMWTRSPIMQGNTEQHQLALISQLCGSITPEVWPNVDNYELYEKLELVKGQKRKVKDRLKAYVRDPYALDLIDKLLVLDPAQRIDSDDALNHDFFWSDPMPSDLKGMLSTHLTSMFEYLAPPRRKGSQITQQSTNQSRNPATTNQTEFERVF
human CDK9/CyclinT kinase complex, sequence (O60563 whole entry partner): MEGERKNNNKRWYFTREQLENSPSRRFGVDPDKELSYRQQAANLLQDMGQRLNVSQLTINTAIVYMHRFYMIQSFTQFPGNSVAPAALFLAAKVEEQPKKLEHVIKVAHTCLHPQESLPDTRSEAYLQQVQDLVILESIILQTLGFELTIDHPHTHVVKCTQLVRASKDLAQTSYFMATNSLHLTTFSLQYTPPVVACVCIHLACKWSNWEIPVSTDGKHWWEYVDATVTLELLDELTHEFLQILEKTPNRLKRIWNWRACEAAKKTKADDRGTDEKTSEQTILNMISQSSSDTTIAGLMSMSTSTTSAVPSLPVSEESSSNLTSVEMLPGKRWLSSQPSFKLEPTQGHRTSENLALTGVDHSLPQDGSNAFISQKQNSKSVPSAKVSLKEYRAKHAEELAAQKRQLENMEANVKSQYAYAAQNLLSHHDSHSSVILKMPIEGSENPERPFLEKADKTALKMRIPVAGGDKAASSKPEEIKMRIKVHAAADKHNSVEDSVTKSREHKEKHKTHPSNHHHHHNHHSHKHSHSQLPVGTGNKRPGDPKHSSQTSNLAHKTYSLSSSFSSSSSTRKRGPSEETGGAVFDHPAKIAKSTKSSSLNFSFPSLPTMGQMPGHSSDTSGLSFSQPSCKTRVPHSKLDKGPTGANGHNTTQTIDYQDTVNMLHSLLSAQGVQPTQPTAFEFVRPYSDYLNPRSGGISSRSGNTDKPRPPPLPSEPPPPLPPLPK
In short: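 Phosphorylation of 400 nM TAMRA-Rbtide (15-mer retinoblastoma-derived peptide) by 5 nM CDK9/CyclinT with 12 μM ATP (=Kmapp) in 20 mM MOPS pH 7, 1 mM DTT, 10 mM MgCl2, 0.01% Tween 20. Reaction run 1 hour at room temperature, stopped with IMAP beads; read by fluorescence polarization.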

[3] = tested on: Primary T cells; experiment: Cytotoxicity, viability by flow cytometry; format: cell-based
Protocol: Primary T cells are cultured and treated with different concentrations of the test compound. Viability is analysed by measuring through flow cytometry based techniques the percentage of viable cells, compared to untreated control=100%).

[4] = Table 4, toxic dose 50%, viable cells

| Structure (SMILES) | antiviral and antiproliferative activity and cytotoxicity profile [1] | IC50 [2] [nM] | TD50 [3] [µM] | IC50 [1] [nM] | IC50 ([2]; Table 1) [nM] | IC50 ([2]; Table 5) [nM] | TD50 [3, 4] [µM] | TD50 ([3]; Table 5) [µM] |
| --- | --- | --- | --- | --- | --- | --- | --- | --- |
| CCOc1ccccc1-c1cc(Nc2ccc(OC)c(C(N)=O)c2)ncn1 [Example 129, 5-[6-(2-Ethoxy-phenyl)-pyrimidin-4-ylamino]-2-methoxy-benzamide] | good antiviral and antiproliferative activity and a good cytotoxicity profile | < 100 | 5 |  |  |  |  |  |
| COc1ccc(Nc2cc(-c3ccccc3OC)ncn2)cc1C(=O)O [Example 49, 2-Methoxy-5-[6-(2-methoxy-phenyl)-pyrimidin-4-ylamino]-benzoic acid] |  |  | >10 | > 10000 | < 1000 | < 1000 |  |  |
| COc1ccccc1-c1cc(Nc2ccc(Cl)c(Cn3cnc4ccccc43)c2)ncn1 [Example 16, N-(3-((1H-benzo[d]imidazol-1-yl)methyl)-4-chlorophenyl)-6-(2-methoxyphenyl)pyrimidin-4-amine] | good antiviral and antiproliferative activity and a good cytotoxicity profile | < 100 | 1.5 |  |  |  |  |  |
| COc1cc(Nc2cc(-c3ccccc3OC)ncn2)ccc1N [Example 59, 2-Methoxy-N^4-[6-(2-methoxy-phenyl)-pyrimidin-4-yl]-benzene-1,4-diamine] |  |  | >2 | > 2000 | < 1000 | < 1000 |  |  |
| COc1cc(Nc2cc(-c3ccccc3OC)ncn2)ccc1C(N)=O [Example 136, 2-Methoxy-4-[6-(2-methoxy-phenyl)-pyrimidin-4-ylamino]-benzamide] |  |  | >2 | > 2000 | < 1000 | < 1000 |  |  |
| COc1ccc(Nc2cc(-c3ccc(F)cc3OC)ncn2)cc1C(N)=O [Example 128, 5-[6-(4-Fluoro-2-methoxy-phenyl)-pyrimidin-4-ylamino]-2-methoxy-benzamide] | good antiviral and antiproliferative activity and a good cytotoxicity profile |  | 5 |  | < 1000 |  |  |  |
| COc1ccc(Nc2cc(-c3ccccc3OC)ncn2)cc1C(N)=O [Example 45, 2-methoxy-5-(6-(2-methoxyphenyl)pyrimidin-4-ylamino)benzamide] | good antiviral and antiproliferative activity and a good cytotoxicity profile | < 100 | 15 |  |  |  |  |  |
| COc1ccc(Nc2cc(-c3ccccc3OC)ncn2)cc1O [Example 32, 2-Methoxy-5-(6-(2-methoxyphenyl)pyrimidin-4-ylamino)phenol] | good antiviral and antiproliferative activity and a good cytotoxicity profile |  | 20 |  | < 100 |  |  |  |
| COc1ccc(Nc2cc(-c3ccccc3OC)ncn2)cc1OC(=O)C(C)(C)C [Example 26, 2-methoxy-5-(6-(2-methoxyphenyl)pyrimidin-4-ylamino)phenyl pivalate] | good antiviral and antiproliferative activity and a good cytotoxicity profile | < 10000 | 6 |  |  |  |  |  |
| CCOc1ccc(F)cc1-c1cc(Nc2ccc(OC)c(C(N)=O)c2)ncn1 [Example 131, 5-[6-(2-Ethoxy-5-fluoro-phenyl)-pyrimidin-4-ylamino]-2-methoxy-benzamide] | good antiviral and antiproliferative activity and a good cytotoxicity profile |  | 2 |  | < 1000 |  |  |  |
| CCOc1ccccc1-c1cc(Nc2cc(F)c(OC)c(C(N)=O)c2)ncn1 [Example 141, 5-[6-(2-Ethoxy-phenyl)-pyrimidin-4-ylamino]-3-fluoro-2-methoxy-benzamide] | good antiviral and antiproliferative activity and a good cytotoxicity profile |  | >20 |  | < 1000 |  |  |  |
| CCOc1cc(F)ccc1-c1cc(Nc2ccc(OC)c(C(N)=O)c2)ncn1 [Example 130, 5-[6-(2-Ethoxy-4-fluoro-phenyl)-pyrimidin-4-ylamino]-2-methoxy-benzamide] | good antiviral and antiproliferative activity and a good cytotoxicity profile | < 100 | 15 |  |  |  |  |  |
| COc1ccccc1-c1cc(Nc2ccc(N(C)C)cc2)ncn1 [Example 5, N^1-(6-(2-methoxyphenyl)pyrimidin-4-yl)-N^4,N^4-dimethylbenzene-1,4-diamine] | good antiviral and antiproliferative activity and a good cytotoxicity profile |  |  |  | < 1000 |  | >10 |  |
| CCOc1cc(F)ccc1-c1cc(Nc2cc(C(N)=O)c(OC)cc2F)ncn1 [Example 147, 5-[6-(2-Ethoxy-4-fluoro-phenyl)-pyrimidin-4-ylamino]-4-fluoro-2-methoxy-benzamide] | good antiviral and antiproliferative activity and a good cytotoxicity profile | < 1000 | 15 |  |  |  |  |  |
| COc1ccc(Nc2cc(-c3ccc(F)cc3OC)ncn2)cc1N [Example 64] | good antiviral and antiproliferative activity and a good cytotoxicity profile |  | 5 |  | < 1000 | < 1000 |  |  |
| CCOc1ccccc1-c1cc(Nc2ccc(OC)c(N)c2)ncn1 [Example 62, N^1-[6-(2-Ethoxy-phenyl)-pyrimidin-4-yl]-4-methoxy-benzene-1,3-diamine] | good antiviral and antiproliferative activity and a good cytotoxicity profile |  | 4 |  | < 1000 |  |  |  |
| CNS(=O)(=O)Nc1cc(Nc2cc(-c3ccccc3OC)ncn2)ccc1OC [Example 10, (2-Methoxy-5-(6-(2-methoxyphenyl)pyrimidin-4-ylamino)phenyl)(methylsulfamoyl)amine] | good antiviral and antiproliferative activity and a good cytotoxicity profile |  | 3 |  | < 100 |  |  |  |
| COc1ccc(Nc2cc(-c3ccc(F)cc3OC)ncn2)cc1O [Example 123, 5-[6-(4-Fluoro-2-methoxy-phenyl)-pyrimidin-4-ylamino]-2-methoxy-phenol] | good antiviral and antiproliferative activity and a good cytotoxicity profile |  | 7 |  | < 1000 |  |  |  |
| CNC(=O)c1ccc(Nc2cc(-c3ccccc3OC)ncn2)cc1OC [Example 134, 2-Methoxy-4-[6-(2-methoxy-phenyl)-pyrimidin-4-ylamino]-N-methyl-benzamide] |  |  | >10 | > 10000 | < 1000 | < 1000 |  |  |
| COc1cc(F)c(Nc2cc(-c3ccccc3OC)ncn2)cc1C(N)=O [Example 143, 4-Fluoro-2-methoxy-5-[6-(2-methoxy-phenyl)-pyrimidin-4-ylamino]-benzamide] | good antiviral and antiproliferative activity and a good cytotoxicity profile | < 1000 | 15 |  |  |  |  |  |
| CCOc1ccccc1-c1cc(Nc2cc(C(N)=O)c(OC)cc2F)ncn1 [Example 145, 5-[6-(2-Ethoxy-phenyl)-pyrimidin-4-ylamino]-4-fluoro-2-methoxy-benzamide] | good antiviral and antiproliferative activity and a good cytotoxicity profile | < 1000 | 15 |  |  |  |  |  |
| COc1ccc(Nc2cc(-c3ccccc3OC)ncn2)cc1CN1C(=O)c2ccccc2C1=O [Example 3, 2-(2-Methoxy-5-(6-(2-methoxyphenyl)pyrimidin-4-ylamino)benzyl)isoindoline-1,3-dione] |  | < 1000 |  | > 1000 |  |  | >5 | >5 |
| COc1ccccc1-c1cc(Nc2ccc(O)c([N+](=O)[O-])c2)ncn1 [Example 12, 4-(6-(2-methoxyphenyl)pyrimidin-4-ylamino)-2-nitrophenol] |  |  | >1.5 | > 1500 | < 1000 | < 1000 |  |  |
| COc1ccc(Nc2cc(-c3ccccc3OC)ncn2)cc1CN [Example 43, N-(3-(Aminomethyl)-4-methoxyphenyl)-6-(2-methoxyphenyl)pyrimidin-4-amine] | good antiviral and antiproliferative activity and a good cytotoxicity profile | < 1000 | 2 | > 1000 |  |  |  |  |
| COc1ccccc1-c1cc(Nc2ccc(N(C)C)c(Cn3cnc4ccccc43)c2)ncn1 [Example 42, 2-((1H-Benzo[d]imidazol-1-yl)methyl)-N4-(6-(2-methoxyphenyl)pyrimidin-4-yl)-N1,N1-dimethylbenzene-1,4-diamine] |  | < 1000 | 4 | > 5000 |  |  |  |  |
| CCOc1cc(F)ccc1-c1cc(Nc2ccc(OC)c(N)c2)ncn1 [Example 73, N^1-[6-(2-Ethoxy-4-fluoro-phenyl)-pyrimidin-4-yl]-4-methoxy-benzene-1,3-diamine] | good antiviral and antiproliferative activity and a good cytotoxicity profile |  | 6 |  | < 1000 |  |  |  |
| COc1cc(F)c(Nc2cc(-c3cc(F)ccc3OC)ncn2)cc1C(N)=O [Example 144, 4-Fluoro-5-[6-(5-fluoro-2-methoxy-phenyl)-pyrimidin-4-ylamino]-2-methoxy-benzamide] | good antiviral and antiproliferative activity and a good cytotoxicity profile | < 1000 | 12 |  |  |  |  |  |
